Data set [1] concerns weeds; corn, wheat, cotton, cowpea, and bush bean. The experiment in a line: Ex42 PRE greenhouse. Type of data set: in vivo. The settings on record: crop and rate in the words. An excerpt: Thereafter flats were watered and fertilized routinely.
Data set [2] concerns weeds; Corn (var. Viking). As to the kind of experiment: Ex15 PRE greenhouse. It counts as in vivo. The conditions noted are these: rate in the words. An excerpt: The weeds tested in this study were redroot pigweed (Amaranthus retroflexus, AMARE), Jimsonweed (Datura stramonium, DATST), black nightshade (Solanum nigrum, SOLNI), large crabgrass (Digitaria sanguinalis, DIGSA), Pennsylvania smartweed (Polygonum pensylvanicum, POLPY), horseweed (Conyza canadensis, ERICA), wild buckwheat (Polygonum convolvulus, POLCO). The crop tested was Corn (var. Viking).
To determine PRE efficacy and corn injury, five rates of each 2,4 DC (36.7% CS) and S-metolachlor (Dual II Magnum®, 82.4%) were applied either alone or as tank-mix. 2,4 DC was applied at 0, 125, 170, 210, or 250 g ai/ha and S-metolachlor was applied at 0, 267, 534, 801, or 1070 g ai/ha. Additional treatments included application of premix of pyroxasulfone plus fluthiacet-methyl (Anthem™ 23.3%) at 169.9 g ai/ha and tank-mix of mesotrione (Callisto®, 40%) at 123 g plus S-metolachlor at 1252 g. Treatments were applied just after the planting of large crabgrass, Jimsonweed, black nightshade, redroot pigweed, Pennsylvania smartweed, horseweed, wild buckwheat, and corn.
Flats were watered and fertilized routinely after treatment application. Each treatment was replicated three times. […] Corn injury was rated for bleaching and stunting.

A further data set has as its system Wild buckwheat. As to the kind of experiment: Ex11 PRE 2,4-DC + clomazone, % control 28 DAT, Colby. It counts as in vivo, Polygonum convolvulus. An excerpt: The crop tested was Oilseed rape.
Additional treatments included applications of metazachlor (Butisan®, 43.1%) at 750 g ai/ha, napropamide (Devrinol DF®, 50%) at 1260 g, and dimethachlor (Teridox®, 48%) at 1000 g. […] Treatments were applied just after the planting of tall morningglory, wild mustard, common lambsquarters, Italian ryegrass, wild buckwheat, redroot pigweed, common chickweed, corn poppy, and oilseed rape.
Flats were watered and fertilized routinely after treatment application. Each treatment was replicated three times.

A further data set has as its system weeds. As to the kind of experiment: Ex22 PRE greenhouse. It counts as in vivo. The settings on record: 28 DAT, weed and rate in the words. An excerpt: 2,4 DC (36.7% CS) was applied PRE at 0, 125, 170, 210, or 250 g ai/ha alone or as a tank-mix with S-metolachlor (Dual II Magnum®, 82.4%) at 0, 267, 534, 801, or 1070 g ai/ha. Pyroxasulfone plus fluthiacet-methyl (Anthem™, 23.3%) applied at 169.9 g ai/ha, and the tank-mix of mesotrione (Callisto®, 40%) at 123 g plus S-metolachlor (Dual II Magnum®, 82.4%) at 1252 g were included as a standards for comparison.
Thereafter flats were watered and fertilized routinely. Each treatment was replicated three times.

The next data set has as its system Wild oat. The experiment in a line: Ex32 PRE 2,4-DC + pyroxasulfone + sulfentrazone, % control 28 DAT, Colby. Type of data set: in vivo, Avena fatua. An excerpt: (§1) Treatments were applied at the time of planting to Italian ryegrass, green foxtail, littleseed canarygrass, wild oat, quackgrass, dandelion, common chickweed, white clover, yellow nutsedge, redroot pigweed, field bindweed, canola, and wheat. […] Flats were watered and fertilized routinely after treatment application.

For another data set, the system named is Quackgrass. The description is as above. It counts as in vivo, Elymus repens.
Excerpt: as §1

A further data set relates to weeds; Wheat and canola. As to the kind of experiment: Ex29 PRE greenhouse. The settings on record: 28 DAT, weed, crop, rate in the words. It counts as in vivo. An excerpt:
The tested weeds include Italian ryegrass (Lolium perenne. multiflorum, LOLMU), wild mustard (Sinapis arvensis, SINAR), annual bluegrass (Poa annua, POAAN), wild oat (Avena fatua, AVEFA), blackgrass (Alopecurus myosuroides, ALOMY), common lambsquarters (Chenopodium album, CHEAL), littleseed canarygrass (Phalaris minor, PHAMI), common chickweed (Stellaria media, STEME), corn poppy (Papaver rhoeas, PAPRH), redroot pigweed (Amaranthus retroflexus, AMARE), silky windgrass (Apera spica-venti, APSEV), wild buckwheat (Polygonum convolvulus, POLCO). The crops teased were Wheat and canola.
Treatments were applied before the emergence of Italian ryegrass, wild oat, wild buckwheat, blackgrass, littleseed canarygrass, common chickweed, common lambsquarters, corn poppy, silky windgrass, redroot pigweed, wild mustard, annual bluegrass, canola, and wheat. […] Flats were watered and fertilized routinely after treatment application.

The next data set has as its system barnyardgrass (BG). The experiment in a line: Ex5 PRE greenhouse, % control. It counts as in vivo, Echinochloa crus-galli. The conditions noted are these: 28 DAT, g ai/ha by row: r10-26 2,4-DC 50/100/200 (3 rows each) + mesotrione 25/50/100 (cycling). The method, then: Test compositions containing 2,4-DC Example 1C and mesotrione (Callisto® Herbicide, 40% active ingredient, Syngenta) and mixtures of 2-(2,4-dichlorophenyl)methyl-4,4-dimethyl-3-isoxazolidinone and mesotrione, were diluted with water to provide the appropriate test rate concentration.
The test weeds were barnyardgrass (BG) (Echinochloa crus-galli), jimsonweed (PA) (Datura stramonium), velvetleaf (VL) (Abutilon theophrasti), common cockelbur (CC) (Xanthium strumarium) and hairy beggarticks (HB) (Bidens pilosa). Crops included in the evaluation were field corn and sorghum.
For pre-emergence testing, four disposable fiber flats (6″ by 10″) for each rate of application of each herbicide solution were filled with top soil, to which seeds of each species were planted in furrows made by a template pressed on the top of the soil. The furrows with seeds were covered with soil and were watered well before application of the test compounds. Flats designated for treatment were placed in a spray chamber having a static platform and a movable sprayer and height of the spray nozzle was 10.5 inches above the soil level. Once the sprayer was calibrated using water for spray volume of 30 gallons per acre, flats were sprayed with sprayer at a speed to receive a coverage equivalent of 30 gallons per acre.
The application rates are those shown in Table 4 below for the individual herbicidal solutions and the herbicide compositions of the present invention. The pre-emergence flats were immediately placed in the greenhouse and watered lightly after treatment. Thereafter they were regularly watered and fertilized for the duration of the test. The control of weeds and injury to crops was evaluated in each experimental test at 28 days after treatment (DAT). […] Percent control was determined by a method similar to the 0 to 100 rating system disclosed in “Research Methods in Weed Science,” 2nd ed., B. Truelove, Ed.; Southern Weed Science Society; Auburn University, Auburn, Ala., 1977.

Here are results for one molecule from patent publication US12616203B2, “Use of 3-isoxazolidinones compounds as selective herbicides” (FMC Corporation, priority 2014, dated 2026).

As for `CC1(C)CON(Cc2ccc(Cl)cc2Cl)C1=O` [2,4-DC, 2-(2,4-dichlorophenyl)methyl-4,4-dimethyl-3-isoxazolidinone], in data set [1], the “crop safety in words” value is “applied alone was safe at all rates on all crops at 14 DAT”. Further, the “weed control / crop safety in words” value in data set [2] was “alone controlled large crabgrass at 170 g ai/ha or 250 g and it was safe on corn at all rate”; in the data set on weeds; Wheat and canola, “alone gave control of pigweed and Italian ryegrass at ≥200 g ai/ha, corn poppy and wild oat at 400 g, blackgrass at ≥100 g, and common chickweed at all rates”. For the same molecule, the X in the data set with Wild buckwheat (2,4-DC alone 125 g ai/ha) was determined as 10%; in the data set with Wild buckwheat (2,4-DC alone 170 g ai/ha), 30%; in the data set on Wild buckwheat (2,4-DC alone 210 g ai/ha), 22%; in the data set with Wild buckwheat (2,4-DC alone 250 g ai/ha), 27%; with Wild oat (2,4-DC alone 50 g ai/ha), 28%; with Wild oat (2,4-DC alone 100 g ai/ha) it was 28%. The X with Wild oat (2,4-DC alone 200 g ai/ha) is reported as 67%; in the data set with Quackgrass (2,4-DC alone 50 g ai/ha), 0%; in the data set on Quackgrass (2,4-DC alone 100 g ai/ha) it was 7%; in the data set with Quackgrass (2,4-DC alone 200 g ai/ha), 10%. Further, the “weed control in words” value with weeds was “applied alone controlled (≥85% injury) Johnsongrass at 210 g ai/ha, common lambsquarters at 250 g and goosegrass at all rates”. Moreover, the “% Control BG” value in the data set on barnyardgrass (BG) (r28-30 2,4-DC 50/100/200, r31-33 mesotrione 25/50/100, 50 g ai/ha) is 97%; in the data set on barnyardgrass (BG) (r28-30 2,4-DC 50/100/200, r31-33 mesotrione 25/50/100, 100 g ai/ha), 99%.
